Here are results for 7 molecules from patent US20060160777A1, “New use of GABAbeta receptor agonists” (priority 2004, published 2006).

Data set [1] has as its system citric acid-induced cough in conscious guinea pigs. Kind of data set: Citric acid-induced cough in conscious guinea pigs, GABAB agonists given subcutaneously. The class given is in vivo, guinea pig. The source says:
Citric acid-induced cough was evoked in conscious guinea pigs. Male Hartley guinea pigs (300-400 g) were placed in a chamber with a continuous flow of air. Positive and negative pressure changes within the chamber were used to monitor the expiratory and inspiratory phases of respiration. A nebuliser was connected in series with the air pump, allowing aerosol delivery of citric acid (0.1-1 M).
Cough was defined based on the visual appearance of the respiratory manoeuvre, the characteristic sound, and by a signature pressure trace typified by an expiratory effort that produced a positive chamber pressure 10-20 times higher than that associated with tidal breathing and proceeded by a rapid and pronounced inspiratory effort. All data were recorded digitally. The total number of coughs and the estimated concentration of citric acid evoking 1, 2 and 5 coughs were determined for each experiment.
(§1) Four treatment groups were employed in this study: Vehicle control, baclofen, (2R)-(3-amino-2-fluoropropyl) phosphinic acid and (3-aminopropyl) phosphinic acid (3-APPiA). […] […] To assess CNS depressant effects of these compounds, their effects on respiratory rate and respiratory pattern (inspiratory and expiratory times) were assessed and compared to control.

Data set [2] is described as follows: Pharmacokinetics in female dogs after single intravenous and oral doses. The class given is in vivo, dog. As to conditions: for half-life / clearance / Vd: Beagle and Labrador; for Vd: read-out: Vss (volume of distribution at steady state); for F (oral availability): oral vs intravenous. On the procedure:
In the present studies dogs received single intravenous and oral doses of 3-APPiA, (2R)-(3-amino-2-fluoropropyl) phosphinic acid (A), (2S)-(3-amino-2-hydroxypropyl) phosphinic acid A), (3-amino-2-oxopropyl) phosphinic acid (C) and 3-amino-2-fluoropropyl) phosphinic acid (D) at therapeutic doses. The plasma concentrations of each compound was determined by LC-MS. The mean values of the total plasma clearance (CL), the half-life (TA), the volume of distribution at steady state (Vs), the oral availability (F), are summarised in Table 5.
Eight female Beagle and four Labrador dogs were used. The dogs were identified by a number tattooed in the ear. The animals had free access to water and were fed once a day (GLP diet) at approximately 1 p.m. On the experimental day, the dogs had not eaten since approximately 1 p.m. on the day before and were not allowed to eat until 6 hours after dosing.
The test formulations were administered intravenously in a superficial front leg vein (this vein was not used for blood sampling during 2 hours after dosing) or orally by gavage. The gavage tube was rinsed with about 20 mL of water and emptied with 20 mL of air before it was taken out. The oral and intravenous dose volumes were 1 and 0.5 mL/kg, respectively
Blood samples of about 2 mL were taken from a superficial front leg vein pre-dose and at 5, 10, 20, 40, 90 minutes, 3, 5, 8 and 24 hours after dosing. The blood samples were collected in heparinized glass tubes (Venoject®) and centrifuged (10 min, 3000 g, +4° C.). The plasma was then transferred to plastic tubes and stored at about −20° C. until analysis.
The pharmacokinetic parameters were calculated by non-compartment analysis using WinNonlin Professional (Pharsight Corporation, California, USA). The area under the plasma concentration-time curve (AUC(0-t)) was calculated using a combination of the linear and logarithmic trapezoidal rule from the time of administration to the sampling time with the last determinable plasma concentration (3, 5, 8 or 24 h). For the intravenous bolus dose, the concentration at time zero (C(0)) was estimated by log-linear regression of the first two concentration-time points. The AUC(0-t) was extrapolated to infinity by adding Ct/k. Ct was the predicted plasma concentration at the time of the last plasma sample with a determinable concentration and k was the apparent terminal rate constant. Ct and k were obtained by linear least-squares regression analysis of the logarithm of the last 3 to 5 plasma concentrations versus time. The apparent terminal half-life (t1/2) was calculated as In 2/k, wherein k is elimination constant, i.e. the slope of the decreasing curve.
The oral bioavailability (F) for each dog was calculated from individual AUC (area under the curve) and dose values. The calculation was made as follows: (AUCpo·Doseiv/AUCic·Dosepo)·100.
Estimates of total plasma clearance and of volume of distribution were calculated from plasma concentration data obtained after intravenous bolus injection. The total plasma clearance (CL) was calculated as Dosei.v./AUCi.v., and the volume of distribution at steady is state (Vss) was calculated as MRTi.v.·CL. The mean residence time after intravenous administration (MRTi.v.) was calculated as AUMC/AUC for bolus injection, wherein AUMC is the area under the first-moment versus time curve. The results are presented by descriptive statistics. The pharmacokinetic parameters are presented as geometric mean and range.

The test system of the next data set is conscious guinea pigs. Kind of data set: Effects of subcutaneously administered GABAB agonists on baseline respiratory rate in conscious guinea pigs. As to conditions: placebo 96.2 ± 3.8. On the procedure: as §1
B. Effects of Subcutaneously Administered GABAB Agonists on Baseline Respiratory Rate in Conscious Guinea Pigs

Where [3] appears, read: 0.3 mg/kg s.c., 30 min before challenge, citric acid 0 M, mean ± spread.
Where [4] appears, read: 0.3 mg/kg s.c., citric acid 0.01 M.
Where [5] appears, read: 0.3 mg/kg s.c., citric acid 0.1 M.
The mark [6] stands for this setting: 0.3 mg/kg s.c., citric acid 0.3 M.
Setting [7] is: 0.3 mg/kg s.c., citric acid 1 M.
Where [8] appears, read: 3 mg/kg s.c., citric acid 0.01 M.
Setting [9] is: 3 mg/kg s.c., citric acid 0.1 M.
Setting [10] is: 3 mg/kg s.c., citric acid 0.3 M.
[11] abbreviates: dog, in vivo, female dogs, geometric mean, dose 2-7 μmol/kg per compound, read-out: T1/2 (half-life) (converted).
Setting [12] is: dog, in vivo, female dogs, intravenous bolus, geometric mean, dose 2-7 μmol/kg per compound, read-out: CL (total plasma clearance).
Where [13] appears, read: dog, in vivo, female dogs, intravenous bolus, geometric mean, dose 2-7 μmol/kg per compound.
Setting [14] is: female dogs, geometric mean, dose 2-7 μmol/kg per compound.

Where two headings read alike, the source gives them in different places.

Consider `NC[C@@H](F)C[PH](=O)O` [A, (2R)-(3-amino-2-fluoropropyl) phosphinic acid], for which the “Cumulative number of coughs evoked by citric acid” value (“Cumulative number of coughs evoked” for short) worked out at 0 ± 0 in data set [1] (setting [3]); 0 ± 0 in data set [1] (setting [4]); 3.4 ± 1.1 in data set [1] (setting [5]); 11.4 ± 1.3 in data set [1] (setting [6]); 27.6 ± 3.7 in data set [1] (setting [7]); 0 ± 0 in data set [1] (3 mg/kg s.c., citric acid 0 M). Also, the “Cumulative number of coughs evoked” value in data set [1] (setting [8]) turned out to be 0.1 ± 0.1; in data set [1] (setting [9]), 1.9 ± 1.1; in data set [1] (setting [10]), 9.0 ± 3.8; in data set [1] (3 mg/kg s.c., citric acid 1 M) it was 15.4 ± 3.6; in data set [1] (10 mg/kg s.c., citric acid 0 M) it was 0 ± 0; in data set [1] (10 mg/kg s.c., citric acid 0.01 M) it was 0 ± 0. The “Cumulative number of coughs evoked” value is listed as 0.6 ± 0.3 in data set [1] (10 mg/kg s.c., citric acid 0.1 M); 3.8 ± 1.3 in data set [1] (10 mg/kg s.c., citric acid 0.3 M); 9.7 ± 1.9 in data set [1] (10 mg/kg s.c., citric acid 1 M). For the same molecule, the half-life in data set [2] (female, dog, in vivo) was 7.5 h. Also, in data set [2] (female, dog, in vivo, iv), the clearance was 2.1 mL/min/kg.
With `NC[C@H](O)C[PH](=O)O` [B, (2S)-(3-amino-2-hydroxypropyl) phosphinic acid], in data set [2] (setting [11]), the half-life is 0.5 h. In addition, in data set [2] (setting [12]), the clearance is 6.67 mL/min/kg. Further, in data set [2] (setting [13]), the Vd is 0.25 L/kg. For the same molecule, the “F (oral availability)” value in data set [2] (setting [14]) is on record as 86%.
`NCC(CC(=O)O)c1ccc(Cl)cc1` (stereo not drawn) [Baclofen, 4-amino-3-(chlorophenyl)butanoic acid]: the “Cumulative number of coughs evoked” value worked out at 0 ± 0 in data set [1] (setting [3]); 1.0 ± 0 in data set [1] (setting [4]); 3.0 ± 0.6 in data set [1] (setting [5]); 12.3 ± 7.4 in data set [1] (setting [6]); 25.7 ± 4.8 in data set [1] (setting [7]); 0 ± 0 in data set [1] (3 mg/kg s.c., citric acid 0 M). The “Cumulative number of coughs evoked” value in data set [1] (setting [8]) is 0 ± 0; in data set [1] (setting [9]), 1.0 ± 0.5; in data set [1] (setting [10]), 6.0 ± 1.9; in data set [1] (3 mg/kg s.c., citric acid 1 M), 14.3 ± 3.8. For the same molecule, the “Baseline respiratory rate (result of study B, mean)” value (“Baseline respiratory rate” for short) turned out to be 96.8 ± 8.5 in the data set on conscious guinea pigs (0.3 mg/kg s.c.) and 78.1 ± 17.6 with conscious guinea pigs (3 mg/kg s.c.).
On to `NCC(=O)C[PH](=O)O` [C, (3-amino-2-oxopropyl) phosphinic acid], for which, in data set [2] (setting [11]), the half-life was 2.5 h. For the same molecule, the clearance in data set [2] (setting [12]) came out at 8.2 mL/min/kg. The Vd in data set [2] (setting [13]) stood at 0.74 L/kg. In addition, the “F (oral availability)” value in data set [2] (setting [14]) worked out at 60%.
Turning to `NCCC[PH](=O)O` [Compound 3-APPiA, (3-aminopropyl) phosphinic acid], the “Cumulative number of coughs evoked” value amounted to 0 ± 0 in data set [1] (setting [3]); 0 ± 0 in data set [1] (setting [4]); 0.2 ± 0.2 in data set [1] (setting [5]); 7.8 ± 3.0 in data set [1] (setting [6]); 28.8 ± 2.9 in data set [1] (setting [7]); 0 ± 0 in data set [1] (3 mg/kg s.c., citric acid 0 M). Also, the “Cumulative number of coughs evoked” value in data set [1] (setting [8]) stood at 0 ± 0; in data set [1] (setting [9]), 1.7 ± 0.9; in data set [1] (setting [10]), 3.9 ± 1.6; in data set [1] (3 mg/kg s.c., citric acid 1 M), 16.1 ± 5.2. Moreover, the half-life in data set [2] (setting [11]) is 0.52 h. In data set [2] (setting [12]), the clearance amounted to 20 mL/min/kg. Further, the Vd in data set [2] (setting [13]) amounted to 0.55 L/kg. Moreover, in data set [2] (setting [14]), the “F (oral availability)” value amounted to 10%. The “Baseline respiratory rate” value with conscious guinea pigs (0.3 mg/kg s.c.) is given as 93.0 ± 5.6; in the data set with conscious guinea pigs (3 mg/kg s.c.), 97.9 ± 4.2.
Regarding `NCC(F)C[PH](=O)O` (stereo not drawn) [D], the “T1/2 (half-life)” value in data set [2] (dog, in vivo) was determined as 8.2 h. Further, in data set [2] (dog, in vivo, iv), the “CL (total plasma clearance)” value came to 5.2 mL/min/kg and the “Vss (volume of distribution at steady state)” value amounted to 2.3 L/kg.
Take `CP(=O)(O)CCCN` [SKF97541, (3-aminopropyl)methyl phosphinic acid]: the “Cumulative number of coughs evoked” value in data set [1] (setting [3]) was 0 ± 0; in data set [1] (setting [4]) it was 0 ± 0; in data set [1] (setting [5]), 0.4 ± 0.2; in data set [1] (setting [6]), 3.8 ± 1.6; in data set [1] (setting [7]), 19.2 ± 5.8. Further, the “Baseline respiratory rate” value was 79.2 ± 16.5 in the data set on conscious guinea pigs (0.1 mg/kg s.c.) and 68.6 ± 6.0 with conscious guinea pigs (0.3 mg/kg s.c.).
